In PubChem BioAssay AID328 (DTP/NCI, 2004):
“And” between values parts separate entries of the source, which are not always exact repeats. Equal values may be shown once. Toxic doses and inconclusive results are not listed. Residues, ends and D or L forms follow the SMILES beside them. *: point of attachment. Bn = c1ccc(C*)cc1

Tested on: BDF1 mice, P388 leukemia ip, median survival T/C
Experiment: NCI In Vivo Anticancer Drug Screen. Data for tumor model P388 Leukemia (intraperitoneal) in B6D2F1 (BDF1) mice
Conditions: endpoint: median survival time, higher = longer survival
How it was run: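 Compound-treated tumour-bearing mice were compared with vehicle-treated controls. Survival was recorded, and the value is the treated-group measurement divided by the control-group measurement (T/C).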

[1] = dose: 0.15 mg/kg/injection, schedule: Q04DX003 (ip), vehicle: saline + alcohol
[2] = dose: 0.3 mg/kg/injection, schedule: Q04DX003 (ip), vehicle: saline + alcohol
[3] = dose: 0.6 mg/kg/injection, schedule: Q04DX003 (ip), vehicle: saline + alcohol
[4] = dose: 1.2 mg/kg/injection, schedule: Q04DX003 (ip), vehicle: saline + alcohol
[5] = dose: 2.4 mg/kg/injection, schedule: Q04DX003 (ip), vehicle: saline + alcohol
[6] = dose: 50.0 mg/kg/injection, schedule: Q04DX003 (ip), vehicle: saline
[7] = dose: 100.0 mg/kg/injection, schedule: Q04DX003 (ip), vehicle: saline
[8] = dose: 100.0 mg/kg/injection, schedule: Q04DX003 (ip), vehicle: saline with Tween-80
[9] = dose: 200.0 mg/kg/injection, schedule: Q04DX003 (ip), vehicle: saline with Tween-80
[10] = dose: 400.0 mg/kg/injection, schedule: Q04DX003 (ip), vehicle: saline with Tween-80
[11] = dose: 50.0 mg/kg/injection, schedule: Q01DX009 (ip), vehicle: saline with Tween-80
[12] = dose: 100.0 mg/kg/injection, schedule: Q01DX009 (ip), vehicle: saline with Tween-80
[13] = dose: 200.0 mg/kg/injection, schedule: Q01DX009 (ip), vehicle: saline with Tween-80
[14] = dose: 12.5 mg/kg/injection, schedule: Q01DX009 (ip), vehicle: saline with Tween-80
[15] = dose: 25.0 mg/kg/injection, schedule: Q01DX009 (ip), vehicle: saline with Tween-80
[16] = dose: 50.0 mg/kg/injection, schedule: Q04DX003 (ip), vehicle: saline with Tween-80
[17] = dose: 400.0 mg/kg/injection, schedule: Q01DX009 (ip), vehicle: saline with Tween-80

For `CO/N=C1\CC(C)N2C(=O)C(C(C)C)NC(=O)C(NC(=O)c3c4nc5c(C(=O)NC6C(=O)NC(C(C)C)C(=O)N7C(C)CC(O)C7C(=O)N(C)CC(=O)N(C)C(C(C)C)C(=O)OC6C)ccc(C)c5oc-4c(C)c(=O)c3N)C(CO)OC(=O)C(C)N(C)C(=O)CN(C)C(=O)C12` (configuration not stated), the T/C (dose: 0.05 mg/kg/injection, schedule: Q01DX009 (ip), vehicle: saline + alcohol) was 99 % of control, the T/C (dose: 0.1 mg/kg/injection, schedule: Q01DX009 (ip), vehicle: saline + alcohol) was 100 % of control and the T/C [1] was 98 % of control. The T/C (dose: 0.2 mg/kg/injection, schedule: Q01DX009 (ip), vehicle: saline + alcohol) was 102 % of control, the T/C [2] was 100 % of control and the T/C (dose: 0.4 mg/kg/injection, schedule: Q01DX001 (ip), vehicle: saline + alcohol) was 92 % of control. The T/C [3] was 105 % of control, the T/C (dose: 0.8 mg/kg/injection, schedule: Q01DX001 (ip), vehicle: saline + alcohol) was 110 % of control and the T/C [4] was 107 % of control. For the same compound, the T/C (dose: 1.6 mg/kg/injection, schedule: Q01DX001 (ip), vehicle: saline + alcohol) was 110 % of control, the T/C [5] was 115 % of control and the T/C (dose: 3.2 mg/kg/injection, schedule: Q01DX001 (ip), vehicle: saline + alcohol) was 118 % of control.

In the case of `[N-]=[N+]=Nc1ccc(Cl)cc1C(=O)c1ccccc1`, the T/C (dose: 25.0 mg/kg/injection, schedule: Q04DX003 (ip), vehicle: saline) is reported as 104 % of control, the T/C [6] is reported as 90 % of control and the T/C [7] is reported as 109 % of control.

With `CCCCNC(=O)Nc1ccc(N(C)C)cc1` the T/C [8] was 90 % of control, the T/C [9] was 90 % of control and the T/C [10] was 100 % of control.

For `CCOC(=O)C1SC(=S)N(C)C1=O` (configuration not stated), the T/C [11] was 94 % of control, the T/C [12] was 100 % of control and the T/C [13] was 100 % of control.

In the case of `CCOCc1nc2nc(Cl)c(Cl)nc2[nH]1`, the T/C [14] is reported as 89 % of control and 99 % of control, the T/C [15] is reported as 89 % of control and 100 % of control and the T/C (dose: 25.0 mg/kg/injection, schedule: Q04DX003 (ip), vehicle: saline with Tween-80) is reported as 100 % of control. The T/C [11] was 86 % of control and 104 % of control and 105 % of control, the T/C [16] was 98 % of control and the T/C [12] was 100 % of control. The T/C [8] was 98 % of control and the T/C [9] was 89 % of control and 104 % of control.

In the case of `CC(C)c1ccc2c(c1)CC[C@H]1[C@](C)(CN=C(N)CCl)CCC[C@]21C`, the T/C (dose: 1.56 mg/kg/injection, schedule: Q01DX009 (ip), vehicle: Klucel (hydroxypropylcellulose) (HPC)) is reported as 110 % of control, the T/C (dose: 3.13 mg/kg/injection, schedule: Q01DX009 (ip), vehicle: Klucel (hydroxypropylcellulose) (HPC)) is reported as 112 % of control and the T/C (dose: 6.25 mg/kg/injection, schedule: Q01DX009 (ip), vehicle: Klucel (hydroxypropylcellulose) (HPC)) is reported as 114 % of control.

With `CCC(C)C1NC(=O)C(NC(=O)c2c3nc4c(C(=O)NC5C(=O)NC(C(C)CC)C(=O)N6CCCC6C(=O)N(C)CC(=O)N(C)C(C(C)C)C(=O)OC5C)cc([N+](=O)[O-])c(C)c4oc-3c(C)c(=O)c2N)C(C)OC(=O)C(C(C)C)N(C)C(=O)CN(C)C(=O)C2CCCN2C1=O` (configuration not stated) the T/C [1] was 197 % of control, the T/C [2] was 157 % of control and 216 % of control and the T/C [3] was 229 % of control and 221 % of control. For the same compound, the T/C [4] was 270 % of control and 177 % of control, the T/C [5] was 116 % of control and the T/C (dose: 50.0 micrograms/kg/injection, schedule: Q01DX009 (ip), vehicle: saline + alcohol) was 173 % of control. For the same compound, the T/C (dose: 100.0 micrograms/kg/injection, schedule: Q01DX009 (ip), vehicle: saline + alcohol) was 197 % of control, the T/C (dose: 200.0 micrograms/kg/injection, schedule: Q01DX009 (ip), vehicle: saline + alcohol) was 312 % of control and the T/C (dose: 400.0 micrograms/kg/injection, schedule: Q01DX009 (ip), vehicle: saline + alcohol) was 118 % of control.

`O=C1OC(=O)C2C1C(c1ccc([N+](=O)[O-])cc1)N1C3C(=O)OC(=O)C3C(c3ccc([N+](=O)[O-])cc3)N21` (configuration not stated) was tested, and the T/C [11] was 97 % of control, the T/C [12] was 99 % of control and the T/C [13] was 92 % of control.

`N#Cc1ccccc1CC(O)(c1ccccc1)c1ccccn1` (configuration not stated) was tested, and the T/C [11] was 100 % of control, the T/C [12] was 103 % of control and the T/C [13] was 115 % of control.

For `CCCCCCCCCCCC1CCCC(C)N1` (configuration not stated), the T/C [7] was 100 % of control, the T/C (dose: 200.0 mg/kg/injection, schedule: Q04DX003 (ip), vehicle: saline) was 95 % of control and the T/C (dose: 400.0 mg/kg/injection, schedule: Q04DX003 (ip), vehicle: saline) was 91 % of control and 95 % of control.

With `NC(=S)N/N=C\c1nccc2ccc(N)cc12` the T/C [11] was 157 % of control.

With `CC(C)=CCOc1ccc2ccc(=O)oc2c1` the T/C (dose: 4.0 mg/kg/injection, schedule: Q01DX009 (ip), vehicle: Klucel (hydroxypropylcellulose) (HPC)) was 100 % of control, the T/C (dose: 8.0 mg/kg/injection, schedule: Q01DX009 (ip), vehicle: Klucel (hydroxypropylcellulose) (HPC)) was 98 % of control and the T/C (dose: 16.0 mg/kg/injection, schedule: Q01DX009 (ip), vehicle: Klucel (hydroxypropylcellulose) (HPC)) was 108 % of control. For the same compound, the T/C (dose: 32.0 mg/kg/injection, schedule: Q01DX009 (ip), vehicle: Klucel (hydroxypropylcellulose) (HPC)) was 90 % of control.

For `NCCC(O)C(=O)NC1CC(N)C(OC2OC(CO)C(O)C(O)C2N)C(OC2OC(CO)C(O)C2O)C1O` (configuration not stated), the T/C (dose: 12.5 mg/kg/injection, schedule: Q01DX009 (ip), vehicle: saline) was 109 % of control, the T/C (dose: 25.0 mg/kg/injection, schedule: Q01DX009 (ip), vehicle: saline) was 109 % of control and the T/C (dose: 50.0 mg/kg/injection, schedule: Q01DX009 (ip), vehicle: saline) was 100 % of control.

`COC(=O)C(CC(C)C)NC(=O)C(N)Cc1ccc(OCc2ccccc2)cc1` (configuration not stated) (H-Tyr(Bn)-Leu-OMe; configuration not given here) was tested, and the T/C [14] was 105 % of control, the T/C [15] was 100 % of control and the T/C [11] was 105 % of control and 120 % of control. For the same compound, the T/C [16] was 105 % of control, the T/C [12] was 105 % of control and the T/C [8] was 100 % of control.

For `COc1ccc(C2CCc3cc4c(cc3C2=O)OCO4)cc1OC` (configuration not stated), the T/C [12] was 100 % of control, the T/C [8] was 90 % of control and the T/C [13] was 95 % of control. For the same compound, the T/C [9] was 100 % of control, the T/C [17] was 100 % of control and the T/C [10] was 100 % of control.

`COc1ccc(C(=O)C[N+](=O)[O-])cc1` was tested, and the T/C [12] was 110 % of control, the T/C [13] was 100 % of control and the T/C [17] was 100 % of control.

In the case of `COC(=O)CSc1ncc2cnccn12`, the T/C (dose: 100.0 mg/kg/injection, schedule: Q04DX003 (ip), vehicle: water) is reported as 109 % of control, the T/C (dose: 200.0 mg/kg/injection, schedule: Q04DX003 (ip), vehicle: water) is reported as 100 % of control and the T/C (dose: 400.0 mg/kg/injection, schedule: Q04DX003 (ip), vehicle: water) is reported as 109 % of control.

With `O=P(Oc1ccc(OP(=O)(N2CC2)N2CC2)cc1)(N1CC1)N1CC1` the T/C [6] was 168 % of control, the T/C (dose: 75.0 mg/kg/injection, schedule: Q04DX003 (ip), vehicle: saline) was 177 % of control and the T/C (dose: 115.0 mg/kg/injection, schedule: Q04DX003 (ip), vehicle: saline with Tween-80) was 190 % of control. The T/C (dose: 175.0 mg/kg/injection, schedule: Q04DX003 (ip), vehicle: saline with Tween-80) was 254 % of control, the T/C (dose: 264.0 mg/kg/injection, schedule: Q04DX003 (ip), vehicle: saline with Tween-80) was 150 % of control and the T/C [10] was 254 % of control.

In the case of `CC1=NC2=NC(CCCC(=O)OCc3ccccc3)=NC3=CC=CC(=N1)N32`, the T/C [15] is reported as 108 % of control, the T/C [11] is reported as 110 % of control and the T/C [12] is reported as 101 % of control.

In the case of `COc1ccc(-c2c(C#N)cnc(C)c2C)c(O)c1OC`, the T/C (dose: 0.2 mg/kg/injection, schedule: Q01DX009 (ip), vehicle: Klucel (hydroxypropylcellulose) (HPC)) is reported as 95 % of control.

In the case of `CCCNC(C)(C)C(SS)c1ccc(C(F)(F)F)cc1` (configuration not stated), the T/C (dose: 12.5 mg/kg/injection, schedule: Q04DX003 (ip), vehicle: other) is reported as 100 % of control, the T/C (dose: 25.0 mg/kg/injection, schedule: Q04DX003 (ip), vehicle: other) is reported as 110 % of control and the T/C (dose: 50.0 mg/kg/injection, schedule: Q04DX003 (ip), vehicle: other) is reported as 105 % of control.

With `CCCOC(=O)C(F)C(Br)C(=O)OCCC` (configuration not stated) the T/C [11] was 89 % of control, the T/C [12] was 99 % of control and the T/C [13] was 118 % of control.

With `O=C(O)C(Br)C(Br)c1ccccc1` (configuration not stated) the T/C [8] was 100 % of control, the T/C [9] was 100 % of control and the T/C [10] was 109 % of control.

For `C1=CN(c2ccc(/C=C\c3ccnc4ccccc34)cc2)C=CN1c1ccc(/C=C\c2ccnc3ccccc23)cc1`, the T/C [11] was 119 % of control.

With `Cc1c(CCl)c(C)c(CCl)c(C)c1CCl` the T/C (dose: 100.0 mg/kg/injection, schedule: Q04DX003 (ip), vehicle: Klucel (hydroxypropylcellulose) (HPC)) was 108 % of control.
